Measurements published in patent US7098208B2, “Inhibitors of Akt activity” (Merck & Co., Inc., priority 2001, dated 2006).

What follows are compounds tested on PKC (mix of isoforms) (assay: PKC Assay (counter screen)). Conditions: myelin basic protein substrate; read-out: Counter screens IC50 (μM) PKC.
Type: biochemical
Procedure: Each PKC assay consists of the following components:
Final assay concentrations were as follows: 0.25 mM EGTA, 0.4 mM CaCl, 20 mM Tris pH 7.5, 10 mM MgCl, 1 mM 2-mercaptoethanol, 0.32 mg/ml phosphatidylserine, 0.032 mg/ml diacylglycerol, 10 μM ^33P-ATP, 70 μg/ml MBP, 10 ng/ml PKC, 0.1 mg/ml BSA.
Assays are performed using 96 deep well assay plates. In each assay well 10 μl of solvent control or appropriate inhibitor dilution with 5 μl ^33P-ATP (components #5 and #3) were premixed. In a separate tube, a mixture containing equal volumes of components #1, #2, #4, and #6 was prepared. The assay reaction was initiated by adding 35 μL of the components #1, #2, #4, and #6 mixture to wells containing ^33P-ATP and inhibitor. The liquid in the assay wells was thoroughly mixed and the assay reactions incubated for 20 minutes at room temperature. The reactions were stopped by adding 100 mM EDTA (50 μl) and 100 mM sodium pyrophosphate (50 μl) and mixing. Phosphorylated MBP was collected on PVDF membranes in 96 well filter plates and quantitated by scintillation counting.

Row | Structure (SMILES) | IC50 [µM]
1 | CN(C)CC(C)(C)CNc1nn2c(-c3ccccc3)nnc2cc1C1CCC1 [Compound 1, N′-(7-Cyclobutyl-3-phenyl-[1,2,4]triazolo[4,3-b]pyridazin-6-yl)-2,2,N,N-tetramethyl-propane-1,3-diamine] | > 40
2 | CN(C)CC(C)(C)CNc1nn2c(-c3cc(F)cc(F)c3)nnc2cc1C1CCC1 [Compound 2, N′-(7-Cyclobutyl-3-(3,5-difluoro-phenyl)-[1,2,4]triazolo[4,3-b]pyridazin-6-yl)-2,2,N,N-tetramethyl-propane-1,3-diamine] | > 40
3 | CN(C)CC(C)(C)CNc1nn2c(-c3ccc(F)c(F)c3)nnc2cc1C1CCC1 [Compound 3, N′-(7-Cyclobutyl-3-(3,4-difluoro-phenyl)-[1,2,4]triazolo[4,3-b]pyridazin-6-yl)-2,2,N,N-tetramethyl-propane-1,3-diamine] | > 40
4 | CN(C)CC(C)(C)CNc1nn2c(-c3ccc(F)cc3)nnc2cc1C1CCC1 [Compound 4, N′-(7-Cyclobutyl-3-(4-fluoro-phenyl)-[1,2,4]triazolo[4,3-b]pyridazin-6-yl)-2,2,N,N-tetramethyl-propane-1,3-diamine] | > 40
5 | CN(C)CC(C)(C)CNc1nn2c(-c3cccc(F)c3)nnc2cc1C1CCC1 [Compound 5, N′-(7-Cyclobutyl-3-(3-fluoro-phenyl)-[1,2,4]triazolo[4,3-b]pyridazin-6-yl)-2,2,N,N-tetramethyl-propane-1,3-diamine] | > 40
